Laboratory results as given in the supplement of paper PMC10627819.

Legend:
Assay in all cases: fitness (endpoint OD595 vs no drug) (fraction); higher = more growth
S. aureus Newman = system: S. aureus Newman
In short: (§1)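 Bacterial fitness was scored as optical density at the stationary-phase transition relative to the robust mean of no-drug control wells. Scores are capped at 1. The growth data were OD595 readings every 30 min for 14 h at 37 °C, background-subtracted against the first reading, from 384-well plates inoculated at OD595 0.01 in TSB, LB Lennox or CY.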

S. pneumoniae D39V = system: S. pneumoniae D39V
In short: as §1

B. subtilis 168 = system: B. subtilis 168
In short: as §1
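Also: OD595 on entry to stationary phase over no-drug wells; at most 1.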

Cc1ncc([N+](=O)[O-])n1CCO [Metronidazole] + CC1(C)S[C@@H]2[C@H](NC(=O)Cc3ccccc3)C(=O)N2[C@H]1C(=O)O [Penicillin G]
fitness, S. aureus Newman
Conditions	first compound 0.625 µg/mL	first compound 0.781 µg/mL	first compound 1.25 µg/mL	first compound 1.562 µg/mL	first compound 2.5 µg/mL	first compound 3.124 µg/mL
partner 0.0195 µg/mL	0.924	0.836	0.799	0.85	0.826	0.829
partner 0.039 µg/mL	0.9	0.975	0.882	0.932	0.913	0.947
partner 0.078 µg/mL	0.812	0.982	0.858	0.959	0.807	0.946

CC1(C)S[C@@H]2[C@H](NC(=O)Cc3ccccc3)C(=O)N2[C@H]1C(=O)O [Penicillin G] + CN[C@@H]1[C@H](O[C@H]2[C@H](O[C@H]3[C@H](O)[C@@H](O)[C@H](N=C(N)N)[C@@H](O)[C@@H]3N=C(N)N)O[C@@H](C)[C@]2(O)C=O)O[C@@H](CO)[C@H](O)[C@H]1O [Streptomycin]
fitness, S. aureus Newman
Conditions	first compound 0.0195 µg/mL	first compound 0.039 µg/mL	first compound 0.078 µg/mL
partner 1 µg/mL	0.903	0.878	0.887
partner 2 µg/mL	0.829	0.865	0.863

CN(C)[C@@H]1C(O)=C(C(N)=O)C(=O)[C@@]2(O)C(O)=C3C(=O)c4c(O)ccc(Cl)c4[C@@](C)(O)[C@H]3C[C@@H]12 [Chlortetracycline] + C[C@H]1c2cccc(O)c2C(=O)C2=C(O)[C@]3(O)C(=O)C(C(N)=O)=C(O)[C@@H](N(C)C)[C@@H]3[C@@H](O)[C@@H]21 [Doxycycline]
fitness, S. pneumoniae D39V, one replicate
Conditions	partner 0.003875 µg/mL	partner 0.00775 µg/mL	partner 0.031 µg/mL	partner 0.062 µg/mL
first compound 0.012 µg/mL	0.909	0.91	0.8	0.707
first compound 0.024 µg/mL	0.834	0.808	0.821	0.774
first compound 0.048 µg/mL	0.774	0.809	0.745	0.614

Conditions	fitness
B. subtilis 168, first compound 0.0475 µg/mL, partner 0.02 µg/mL	0.858
B. subtilis 168, first compound 0.0475 µg/mL, partner 0.04 µg/mL	0.658
B. subtilis 168, first compound 0.095 µg/mL, partner 0.02 µg/mL	0.735
B. subtilis 168, first compound 0.095 µg/mL, partner 0.04 µg/mL	0.553
B. subtilis 168, first compound 0.19 µg/mL, partner 0.08 µg/mL	0.0672
S. pneumoniae D39V, first compound 0.012 µg/mL, partner 0.0155 µg/mL	0.921
S. pneumoniae D39V, first compound 0.024 µg/mL, partner 0.0155 µg/mL	0.88
S. pneumoniae D39V, first compound 0.048 µg/mL, partner 0.0155 µg/mL	0.803
S. pneumoniae D39V, first compound 0.375 µg/mL, partner 0.0155 µg/mL	0.0318
S. pneumoniae D39V, first compound 0.375 µg/mL, partner 0.031 µg/mL	0.0187
S. pneumoniae D39V, first compound 0.375 µg/mL, partner 0.062 µg/mL	0.0418
S. pneumoniae D39V, first compound 0.75 µg/mL, partner 0.0155 µg/mL	0.0248
S. pneumoniae D39V, first compound 0.75 µg/mL, partner 0.031 µg/mL	0.0352
S. pneumoniae D39V, first compound 0.75 µg/mL, partner 0.062 µg/mL	0.0311
S. pneumoniae D39V, first compound 1.5 µg/mL, partner 0.0155 µg/mL	0.0258
S. pneumoniae D39V, first compound 1.5 µg/mL, partner 0.031 µg/mL	0.067
S. pneumoniae D39V, first compound 1.5 µg/mL, partner 0.062 µg/mL	0.047

CN(C)[C@@H]1C(O)=C(C(N)=O)C(=O)[C@@]2(O)C(O)=C3C(=O)c4c(O)ccc(Cl)c4[C@@](C)(O)[C@H]3C[C@@H]12 [Chlortetracycline] + CN[C@@H]1[C@H](O[C@H]2[C@H](O[C@H]3[C@H](O)[C@@H](O)[C@H](N=C(N)N)[C@@H](O)[C@@H]3N=C(N)N)O[C@@H](C)[C@]2(O)C=O)O[C@@H](CO)[C@H](O)[C@H]1O [Streptomycin]
fitness, S. pneumoniae D39V, one replicate
Conditions	first compound 0.012 µg/mL	first compound 0.024 µg/mL	first compound 0.048 µg/mL
partner 2 µg/mL	0.886	0.861	0.794
partner 16 µg/mL	0.757	0.72	0.619

fitness
Conditions	partner 2 µg/mL	partner 4 µg/mL	partner 8 µg/mL
B. subtilis 168, first compound 0.0475 µg/mL	0.863	0.729	–
B. subtilis 168, first compound 0.095 µg/mL	0.735	0.601	–
B. subtilis 168, first compound 0.19 µg/mL	0.473	0.367	0.0988
S. pneumoniae D39V, first compound 0.012 µg/mL	–	0.898	0.829
S. pneumoniae D39V, first compound 0.024 µg/mL	–	0.827	0.794
S. pneumoniae D39V, first compound 0.048 µg/mL	–	0.762	0.779
S. pneumoniae D39V, first compound 0.375 µg/mL	0.0439	0.0457	0.0281
S. pneumoniae D39V, first compound 0.75 µg/mL	0.0196	0.0558	0.0751
S. pneumoniae D39V, first compound 1.5 µg/mL	0.0385	0.0525	0.0578

CN(C)[C@@H]1C(O)=C(C(N)=O)C(=O)[C@@]2(O)C(O)=C3C(=O)c4c(O)ccc(Cl)c4[C@@](C)(O)[C@H]3C[C@@H]12 [Chlortetracycline] + CN(C)C(=O)C(CCN1CCC(O)(c2ccc(Cl)cc2)CC1)(c1ccccc1)c1ccccc1 [Loperamide]
Conditions	fitness
B. subtilis 168, first compound 0.0475 µg/mL, partner 50 µg/mL	0.0353
B. subtilis 168, first compound 0.0475 µg/mL, partner 100 µg/mL	0.0088
B. subtilis 168, first compound 0.095 µg/mL, partner 25 µg/mL	0.0158
B. subtilis 168, first compound 0.095 µg/mL, partner 50 µg/mL	0.0367
B. subtilis 168, first compound 0.095 µg/mL, partner 100 µg/mL	0.0243
B. subtilis 168, first compound 0.19 µg/mL, partner 25 µg/mL	0.0386
B. subtilis 168, first compound 0.19 µg/mL, partner 50 µg/mL	0.05
B. subtilis 168, first compound 0.19 µg/mL, partner 100 µg/mL	0.0328
S. pneumoniae D39V, first compound 0.012 µg/mL, partner 17.14 µg/mL	0.967
S. pneumoniae D39V, first compound 0.012 µg/mL, partner 34.28 µg/mL	0.899
S. pneumoniae D39V, first compound 0.024 µg/mL, partner 17.14 µg/mL	0.926
S. pneumoniae D39V, first compound 0.024 µg/mL, partner 34.28 µg/mL	0.909
S. pneumoniae D39V, first compound 0.048 µg/mL, partner 17.14 µg/mL	0.829
S. pneumoniae D39V, first compound 0.048 µg/mL, partner 34.28 µg/mL	0.844
S. pneumoniae D39V, first compound 0.375 µg/mL, partner 20 µg/mL	0.0446
S. pneumoniae D39V, first compound 0.375 µg/mL, partner 40 µg/mL	0.0664
S. pneumoniae D39V, first compound 0.375 µg/mL, partner 80 µg/mL	0.065
S. pneumoniae D39V, first compound 0.75 µg/mL, partner 20 µg/mL	0.0563
S. pneumoniae D39V, first compound 0.75 µg/mL, partner 40 µg/mL	0.0762
S. pneumoniae D39V, first compound 0.75 µg/mL, partner 80 µg/mL	0.0821
S. pneumoniae D39V, first compound 1.5 µg/mL, partner 20 µg/mL	0.04
S. pneumoniae D39V, first compound 1.5 µg/mL, partner 40 µg/mL	0.0491
S. pneumoniae D39V, first compound 1.5 µg/mL, partner 80 µg/mL	0.0392

S. pneumoniae D39V, partner 68.57 µg/mL, one replicate
Conditions	fitness
first compound 0.012 µg/mL	0.908
first compound 0.024 µg/mL	0.92
first compound 0.048 µg/mL	0.8
